In patent US6448203B1, “Substituted aryluracils” (Bayer Aktiengesellschaft, priority 1997, dated 2002):

How the values were obtained:
Abutilon [1] = test: Pre-emergence test; type: in vivo; details: application rate of 250 g/ha, after three weeks, 0%=no effect, 100%=total destruction
Protocol: (§1) Pre-Emergence Test Solvent: 5 parts by weight of acetone Emulsifier: 1 part by weight of alkylaryl polyglycol ether To produce a suitable preparation of active compound, 1 part by weight of active compound is mixed with the stated amount of solvent, the stated amount of emulsifier is added and the concentrate is diluted with water to the desired concentration. Seeds of the test plants are sown in normal soil. After about 24 hours, the soil is sprayed with the preparation of active compound in such a way as to apply the particular amounts of active compound desired per unit area. The concentration of the spray liquor is chosen such that the particular amounts of active compound desired are applied in 1000 l of water/ha. After three weeks, the degree of damage to the plants is rated in % damage in comparison to the development of the untreated control. The figures denote: 0%=no effect (like untreated control) 100%=total destruction

Amaranthus [2] = test: Pre-emergence test; type: in vivo; details: application rate of 250 g/ha, after three weeks, 0%=no effect, 100%=total destruction
Protocol: as §1

Setaria [3] = test: Pre-emergence test; type: in vivo; details: application rate of 250 g/ha, after three weeks, 0%=no effect, 100%=total destruction
Protocol: as §1

Sinapis [4] = test: Pre-emergence test; type: in vivo; details: application rate of 250 g/ha, after three weeks, 0%=no effect, 100%=total destruction
Protocol: as §1

Abutilon [5] = test: Post-emergence test; type: in vivo; details: application rate of 250 glha, after three weeks, 0%=no effect, 100%=total destruction
Protocol: (§2) Post-Emergence Test Solvent: 5 parts by weight of acetone Emulsifier: 1 part by weight of alkylaryl polyglycol ether To produce a suitable preparation of active compound, 1 part by weight of active compound is mixed with the stated amount of solvent, the stated amount of emulsifier is added and the concentrate is diluted with water to the desired concentration. Test plants which have a height of 5-15 cm are sprayed with the preparation of active compound in such a way that the particular amounts of active compound desired are applied per unit area. The concentration of the spray liquor is chosen such that the particular amounts of active compound desired are applied in […] of water/ha. After three weeks, the degree of damage to the plants is rated in % damage in comparison to the development of the untreated control. The figures denote: 0%=no effect (like untreated control) 100%=total destruction

Amaranthus [6] = test: Post-emergence test; type: in vivo; details: application rate of 250 glha, after three weeks, 0%=no effect, 100%=total destruction
Protocol: as §2

Setaria [7] = test: Post-emergence test; type: in vivo; details: application rate of 250 glha, after three weeks, 0%=no effect, 100%=total destruction
Protocol: as §2

Sinapis [8] = test: Post-emergence test; type: in vivo; details: application rate of 250 glha, after three weeks, 0%=no effect, 100%=total destruction
Protocol: as §2

[9] = system: mustard beetle larvae (Phaedon cochleariae); test: Phaedon larvae test; type: in vivo; details: active compound concentration of 0.1%; after 7 days; dipped cabbage leaves (Brassica oleracea)
Protocol: Phaedon Larvae Test Solvent: 7 parts by weight of dimethylformamide Emulsifier: 1 part by weight of alkylaryl polyglycol ether To produce a suitable preparation of active compound, 1 part by weight of active compound is mixed with the stated amount of solvent and the stated amount of emulsifier, and the concentrate is diluted with water to the desired concentration. Cabbage leaves (Brassica oleracea) are treated by being dipped into the preparation of active compound of the desired concentration and are populated with mustard beetle larvae (Phaedon cochleariae) while the leaves are still moist. After the desired period of time, the kill in % is determined. 100% means that all beetle larvae have been killed; 0% means that none of the beetle larvae have been killed.

Row | SMILES | melting point [°C] | degree of damage to the plants (% damage), Abutilon (Abutilon [1]) [%] | degree of damage to the plants (% damage), Amaranthus (Amaranthus [2]) [%] | degree of damage to the plants (% damage), Setaria (Setaria [3]) [%] | degree of damage to the plants (% damage), Sinapis (Sinapis [4]) [%] | degree of damage to the plants (% damage), Abutilon (Abutilon [5]) [%] | degree of damage to the plants (% damage), Amaranthus (Amaranthus [6]) [%] | degree of damage to the plants (% damage), Setaria (Setaria [7]) [%] | degree of damage to the plants (% damage), Sinapis (Sinapis [8]) [%] | kill in % [9] [%]
1 | Nn1c(C(F)(F)F)cc(=O)n(-c2ccc(OCc3ccc(Cl)nc3)cc2F)c1=O [Preparation Example 3, 3-amino-1-[2-fluoro4-(2-chloro-pyridin-5-yl-methoxy)-phenyl]4-trifluoromethyl-3,6-dihydro-2,6-dioxo-1 (2H)-pyrimidine] | 171 | – | – | – | – | – | – | – | – | –
2 | O=c1cc(C(F)(F)F)[nH]c(=O)n1-c1ccc(OCc2ccc(Cl)nc2)cc1F [Example 1, 1-[2-fluoro-4-(2-chloro-pyridin-5-y1-methoxy)-phenyl]-4-trifluoromethyl-3,6-dihydro-2,6-dioxo-1(2H)-pyrimidine] | 212 | – | – | – | – | – | – | – | – | –
3 | Cn1c(C(F)(F)F)cc(=O)n(-c2ccc(OCc3ccc(Cl)nc3)cc2F)c1=O [Preparation Example 2, 1-[2-fluoro4-(2-chloro-pyridin-5-yl-methoxy)-phenyl]-3-methyl4-trifluoromethyl-3,6-dihydro-2,6-dioxo-1 (2H)-pyrimidine] | 164 | 100 | 100 | 100 | 100 | 100 | 100 | 100 | 100 | –
4 | Nn1c(C(F)(F)F)cc(=O)n(-c2ccc(OCc3ccc(Cl)nc3)cc2F)c1=O [compound 3] | – | 100 | 100 | 100 | 100 | 100 | 100 | 100 | 100 | 100
